According to ChEMBL document CHEMBL1155312, “In vivo evaluation of diaminodiphenyls: anticonvulsant agents with minimal acute neurotoxicity” (Bioorg Med Chem Lett, 2009):

Columns and labels:
Rattus norvegicus [1] = assay: Neurotoxicity in Sprague-Dawley rat at 500 mg/kg, po by positional sense and gait and stance test; format: toxicity, organism-based; parameters: dose 500 mg/kg, route oral; settings: in vivo
Mus musculus [2] = assay: Anticonvulsant activity in CF1 albino mouse assessed as inhibition of maximal electric shock-induced seizure at 30 mg/kg, ip after 0.5 hrs; format: functional; settings: route intraperitoneal
Mus musculus [3] = assay: Anticonvulsant activity in CF1 albino mouse assessed as inhibition of maximal electric shock-induced seizure at 100 mg/kg, ip after 0.5 hrs; format: functional; settings: route intraperitoneal
Mus musculus [4] = assay: Anticonvulsant activity in CF1 albino mouse assessed as inhibition of maximal electric shock-induced seizure at 300 mg/kg, ip after 0.5 hrs; format: functional; settings: route intraperitoneal
Mus musculus [5] = assay: Anticonvulsant activity in CF1 albino mouse assessed as inhibition of maximal electric shock-induced seizure at 30 mg/kg, ip after 4 hrs; format: functional; settings: route intraperitoneal
Mus musculus [6] = assay: Anticonvulsant activity in CF1 albino mouse assessed as inhibition of maximal electric shock-induced seizure at 100 mg/kg, ip after 4 hrs; format: functional; settings: route intraperitoneal
Mus musculus [7] = assay: Anticonvulsant activity in CF1 albino mouse assessed as inhibition of maximal electric shock-induced seizure at 300 mg/kg, ip after 4 hrs; format: functional; settings: route intraperitoneal
Rattus norvegicus [8] = assay: Anticonvulsant activity in Sprague-Dawley rat assessed as inhibition of maximal electric shock-induced seizure at 30 mg/kg, po after 0.25 hrs; format: functional
Rattus norvegicus [9] = assay: Anticonvulsant activity in Sprague-Dawley rat assessed as inhibition of maximal electric shock-induced seizure at 30 mg/kg, po after 0.5 hrs; format: functional
Rattus norvegicus [10] = assay: Anticonvulsant activity in Sprague-Dawley rat assessed as inhibition of maximal electric shock-induced seizure at 30 mg/kg, po after 1 hrs; format: functional
Rattus norvegicus [11] = assay: Anticonvulsant activity in Sprague-Dawley rat assessed as inhibition of maximal electric shock-induced seizure at 30 mg/kg, po after 2 hrs; format: functional
Rattus norvegicus [12] = assay: Anticonvulsant activity in Sprague-Dawley rat assessed as inhibition of maximal electric shock-induced seizure at 30 mg/kg, po after 4 hrs; format: functional
Rattus norvegicus [13] = assay: Neurotoxicity in Sprague-Dawley rat at 30 mg/kg, po by positional sense and gait and stance test; format: toxicity, organism-based; parameters: dose 30 mg/kg, route oral; settings: in vivo
Mus musculus [14] = assay: Neurotoxicity in CF1 albino mouse at 100 mg/kg, ip by rotarod test; format: toxicity, organism-based; parameters: dose 100 mg/kg, route intraperitoneal; settings: in vivo
Rattus norvegicus [15] = assay: Neurotoxicity in Sprague-Dawley rat at 250 mg/kg, po by positional sense and gait and stance test; format: toxicity, organism-based; parameters: dose 250 mg/kg, route oral; settings: in vivo
Mus musculus [16] = assay: Anticonvulsant activity in CF1 albino mouse assessed as inhibition of minimal clonic seizure at 100 mg/kg, ip after 0.25 hrs; format: functional; settings: route intraperitoneal
Mus musculus [17] = assay: Anticonvulsant activity in CF1 albino mouse assessed as inhibition of minimal clonic seizure at 100 mg/kg, ip after 0.5 hrs; format: functional; settings: route intraperitoneal
Mus musculus [18] = assay: Anticonvulsant activity in CF1 albino mouse assessed as inhibition of minimal clonic seizure at 100 mg/kg, ip after 1 hrs; format: functional; settings: route intraperitoneal
Mus musculus [19] = assay: Anticonvulsant activity in CF1 albino mouse assessed as inhibition of minimal clonic seizure at 100 mg/kg, ip after 2 hrs; format: functional; settings: route intraperitoneal
Mus musculus [20] = assay: Anticonvulsant activity in CF1 albino mouse assessed as inhibition of minimal clonic seizure at 100 mg/kg, ip after 4 hrs; format: functional; settings: route intraperitoneal
Mus musculus [21] = assay: Anticonvulsant activity in CF1 albino mouse assessed as inhibition of minimal clonic seizure at 30 mg/kg, ip after 0.25 hrs; format: functional; settings: route intraperitoneal
Mus musculus [22] = assay: Anticonvulsant activity in CF1 albino mouse assessed as inhibition of minimal clonic seizure at 30 mg/kg, ip after 0.5 hrs; format: functional; settings: route intraperitoneal
Mus musculus [23] = assay: Anticonvulsant activity in CF1 albino mouse assessed as inhibition of minimal clonic seizure at 30 mg/kg, ip after 1 hrs; format: functional; settings: route intraperitoneal
Rattus norvegicus [24] = assay: Neurotoxicity in Sprague-Dawley rat at 500 mg/kg, po by positional sense and gait and stance test after 1 hrs; format: toxicity, organism-based; parameters: dose 500 mg/kg, route oral; settings: in vivo
Mus musculus [25] = assay: Anticonvulsant activity in CF1 albino mouse assessed as inhibition of minimal clonic seizure at 80 mg/kg, ip after 0.25 hrs; format: functional; settings: route intraperitoneal
Mus musculus [26] = assay: Anticonvulsant activity in CF1 albino mouse assessed as inhibition of minimal clonic seizure at 80 mg/kg, ip after 0.5 hrs; format: functional; settings: route intraperitoneal
Mus musculus [27] = assay: Anticonvulsant activity in CF1 albino mouse assessed as inhibition of minimal clonic seizure at 80 mg/kg, ip after 1 hrs; format: functional; settings: route intraperitoneal
Mus musculus [28] = assay: Anticonvulsant activity in CF1 albino mouse assessed as inhibition of minimal clonic seizure at 80 mg/kg, ip after 2 hrs; format: functional; settings: route intraperitoneal
Mus musculus [29] = assay: Anticonvulsant activity in CF1 albino mouse assessed as inhibition of minimal clonic seizure at 80 mg/kg, ip after 4 hrs; format: functional; settings: route intraperitoneal
Rattus norvegicus [30] = assay: Anticonvulsant activity against kindle motor-induced seizure in rat assessed as after discharge duration at 100 mg/kg, ip after 15 mins by hippocampal kindling screen test; format: functional, Hippocampus; settings: route intraperitoneal
Rattus norvegicus [31] = assay: Anticonvulsant activity against kindle motor-induced seizure in rat assessed as after discharge duration at 100 mg/kg, ip after 45 mins by hippocampal kindling screen test; format: functional, Hippocampus; settings: route intraperitoneal
Rattus norvegicus [32] = assay: Anticonvulsant activity against kindle motor-induced seizure in rat assessed as after discharge duration at 100 mg/kg, ip after 75 mins by hippocampal kindling screen test; format: functional, Hippocampus; settings: route intraperitoneal
Rattus norvegicus [33] = assay: Anticonvulsant activity against kindle motor-induced seizure in rat assessed as after discharge duration at 100 mg/kg, ip after 105 mins by hippocampal kindling screen test; format: functional, Hippocampus; settings: route intraperitoneal
Rattus norvegicus [34] = assay: Anticonvulsant activity against kindle motor-induced seizure in rat assessed as after discharge duration at 100 mg/kg, ip after 135 mins by hippocampal kindling screen test; format: functional, Hippocampus; settings: route intraperitoneal
Rattus norvegicus [35] = assay: Anticonvulsant activity against kindle motor-induced seizure in rat assessed as after discharge duration at 100 mg/kg, ip after 165 mins by hippocampal kindling screen test; format: functional, Hippocampus; settings: route intraperitoneal
Rattus norvegicus [36] = assay: Anticonvulsant activity against kindle motor-induced seizure in rat assessed as after discharge duration at 100 mg/kg, ip after 195 mins by hippocampal kindling screen test; format: functional, Hippocampus; settings: route intraperitoneal
Rattus norvegicus [37] = assay: Anticonvulsant activity against kindle motor-induced seizure in rat assessed as after discharge duration at 100 mg/kg, ip after 225 mins by hippocampal kindling screen test; format: functional, Hippocampus; settings: route intraperitoneal
Rattus norvegicus [38] = assay: Anticonvulsant activity against kindle motor-induced seizure in rat assessed as after discharge duration at 100 mg/kg, ip after 255 mins by hippocampal kindling screen test; format: functional, Hippocampus; settings: route intraperitoneal
Mus musculus [39] = assay: Anticonvulsant activity in CF1 albino mouse assessed as inhibition of minimal clonic seizure at 30 mg/kg, ip after 2 hrs; format: functional; settings: route intraperitoneal
Mus musculus [40] = assay: Neurotoxicity in CF1 albino mouse at 300 mg/kg, ip by rotarod test after 4 hrs; format: toxicity, organism-based; parameters: dose 300 mg/kg, route intraperitoneal; settings: in vivo

SMILES	inhibition in vivo at 30 mg/kg (Mus musculus [2])	inhibition in vivo at 100 mg/kg (Mus musculus [3])	inhibition in vivo at 300 mg/kg (Mus musculus [4])	inhibition in vivo at 30 mg/kg (Mus musculus [5])	inhibition in vivo at 100 mg/kg (Mus musculus [6])	inhibition in vivo at 300 mg/kg (Mus musculus [7])	inhibition in vivo at 30 mg/kg (Rattus norvegicus [8])	inhibition in vivo at 30 mg/kg (Rattus norvegicus [9])	inhibition in vivo at 30 mg/kg (Rattus norvegicus [10])	inhibition in vivo at 30 mg/kg (Rattus norvegicus [11])	inhibition in vivo at 30 mg/kg (Rattus norvegicus [12])	Activity (Mus musculus [14])	inhibition in vivo at 100 mg/kg (Mus musculus [16])	inhibition in vivo at 100 mg/kg (Mus musculus [17])	inhibition in vivo at 100 mg/kg (Mus musculus [18])	inhibition in vivo at 100 mg/kg (Mus musculus [19])	inhibition in vivo at 100 mg/kg (Mus musculus [20])	inhibition in vivo at 30 mg/kg (Mus musculus [21])	inhibition in vivo at 30 mg/kg (Mus musculus [22])	inhibition in vivo at 30 mg/kg (Mus musculus [23])	other results
Nc1ccc(NC(=O)c2ccc(N)cc2)cc1	0%	66%	100%	0%	0%	100%	50%	75%	50%	25%	50%	–	–	–	–	–	–	–	–	–	Activity (Rattus norvegicus [1]): Non-toxic
Nc1ccc(Oc2ccc(N)cc2)cc1	0%	100%	100%	0%	100%	100%	100%	100%	75%	75%	100%	–	–	–	–	–	–	–	–	–	Activity (Rattus norvegicus [13]): Non-toxic
Nc1ccc(Nc2cccc(N)c2)cc1	0%	100%	100%	0%	100%	100%	0%	50%	75%	50%	50%	Non-toxic	–	–	–	–	–	–	–	–	Activity (Rattus norvegicus [15]): Non-toxic
Nc1ccc(C(=O)c2ccc(N)cc2)cc1	0%	100%	100%	0%	100%	100%	50%	100%	75%	100%	75%	–	100%	100%	100%	0%	0%	0%	0%	0%	Activity (Rattus norvegicus [24]): Non-toxic
Nc1ccc(Cc2ccc(N)cc2)cc1 [4,4'-METHYLENEDIANILINE]	0%	100%	100%	0%	0%	100%	100%	75%	100%	100%	50%	Non-toxic	–	–	–	–	–	–	–	–	–
Nc1ccc(Sc2ccc(N)cc2)cc1 [4,4'-THIODIANILINE]	0%	66%	100%	0%	100%	100%	100%	100%	100%	100%	100%	–	100%	100%	100%	100%	0%	0%	25%	25%	inhibition in vivo at 80 mg/kg (Mus musculus [25]): 100%; inhibition in vivo at 80 mg/kg (Mus musculus [26]): 100%; inhibition in vivo at 80 mg/kg (Mus musculus [27]): 100%; inhibition in vivo at 80 mg/kg (Mus musculus [28]): 75%; inhibition in vivo at 80 mg/kg (Mus musculus [29]): 0%; Activity (Rattus norvegicus [30]): 19.14 s; Activity (Rattus norvegicus [31]): 25.29 s; Activity (Rattus norvegicus [32]): 24.86 s; Activity (Rattus norvegicus [33]): 33.29 s; Activity (Rattus norvegicus [34]): 34.71 s; Activity (Rattus norvegicus [35]): 57.43 s; Activity (Rattus norvegicus [36]): 55.29 s; Activity (Rattus norvegicus [37]): 71.29 s; Activity (Rattus norvegicus [38]): 65.43 s; inhibition in vivo at 30 mg/kg (Mus musculus [39]): 25%; Activity (Mus musculus [40]): Non-toxic
